Experimental data reported in BindingDB's records for doi:10.1021/acs.biochem.7b00178 (University of Waterloo, 2017).

How the values were obtained:
[1] = target: Phosphoenolpyruvate carboxykinase, cytosolic [GTP] [H477R] (Rat, UniProt P07379, H477R); assay: PEPCK Inhibition Assay
Procedure: (§1) The inhibition of H477R PEPCK by β-sulfopyruvate (βSP), oxalate, and GMPPCP was conducted in the direction of PEP synthesis (OAA → PEP). The Michaelis constant of OAA was determined at various fixed concentrations of β-SP (0−100 μM) or oxalate (0−1000 μM), and the Michaelis constant for GTP was determined at various fixed concentrations of GMPPCP (0-800 μM).

[2] = target: T1, Phosphoenolpyruvate carboxykinase, cytosolic [GTP] (Rattus norvegicus, UniProt P07379); assay: PEPCK Inhibition Assay
T1 sequence (P07379 whole entry): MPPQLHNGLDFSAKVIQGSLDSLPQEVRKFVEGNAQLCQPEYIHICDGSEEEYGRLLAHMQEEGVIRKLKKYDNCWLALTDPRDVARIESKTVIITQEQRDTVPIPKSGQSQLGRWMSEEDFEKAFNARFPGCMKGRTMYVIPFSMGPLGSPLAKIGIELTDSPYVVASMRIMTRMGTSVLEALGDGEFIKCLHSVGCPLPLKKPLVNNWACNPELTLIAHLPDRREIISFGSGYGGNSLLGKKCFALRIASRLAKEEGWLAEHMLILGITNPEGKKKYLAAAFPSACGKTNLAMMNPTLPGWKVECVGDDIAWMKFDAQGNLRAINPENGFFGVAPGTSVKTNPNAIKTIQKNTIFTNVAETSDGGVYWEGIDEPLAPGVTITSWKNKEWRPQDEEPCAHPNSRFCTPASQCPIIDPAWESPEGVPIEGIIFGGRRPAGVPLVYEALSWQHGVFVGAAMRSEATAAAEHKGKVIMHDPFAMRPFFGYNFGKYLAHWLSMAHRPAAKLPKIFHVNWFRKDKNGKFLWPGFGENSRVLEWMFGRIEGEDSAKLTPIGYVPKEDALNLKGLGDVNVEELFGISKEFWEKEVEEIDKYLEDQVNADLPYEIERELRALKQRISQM
Procedure: as §1

Sequence of Phosphoenolpyruvate carboxykinase, cytosolic [GTP] [H477R] (P07379 whole entry H477R): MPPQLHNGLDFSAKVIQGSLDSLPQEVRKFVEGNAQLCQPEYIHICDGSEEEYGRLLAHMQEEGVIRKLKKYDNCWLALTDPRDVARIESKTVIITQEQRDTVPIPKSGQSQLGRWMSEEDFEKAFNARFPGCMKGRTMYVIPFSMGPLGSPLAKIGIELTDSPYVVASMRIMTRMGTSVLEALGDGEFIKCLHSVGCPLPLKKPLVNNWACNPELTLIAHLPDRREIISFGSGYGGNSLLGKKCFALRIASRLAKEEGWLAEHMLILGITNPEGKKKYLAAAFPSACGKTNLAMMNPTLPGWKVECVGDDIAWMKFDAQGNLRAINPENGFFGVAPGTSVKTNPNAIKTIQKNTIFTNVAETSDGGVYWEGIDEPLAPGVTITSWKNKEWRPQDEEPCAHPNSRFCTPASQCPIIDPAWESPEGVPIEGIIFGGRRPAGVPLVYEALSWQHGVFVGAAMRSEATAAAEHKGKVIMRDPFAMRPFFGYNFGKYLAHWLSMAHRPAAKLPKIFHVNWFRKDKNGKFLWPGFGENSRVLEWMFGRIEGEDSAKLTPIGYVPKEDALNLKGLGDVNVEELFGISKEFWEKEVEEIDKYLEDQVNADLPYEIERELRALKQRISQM

With C=C(OP(=O)(O)O)C(=O)O [PHOSPHOENOLPYRUVATE] the Ki [1] was 289 µM.

O=C(O)CC(=O)C(=O)O [keto-Oxaloacetate] was tested, and the Ki [1] was 441 µM.

O=C(O)C(=O)CS(=O)(=O)O [β-Sulfopyruvate] gave a Ki [1] of 37 µM.

Nc1nc(O)c2ncn([C@@H]3O[C@H](COP(=O)(O)OP(=O)(O)C[P+]([O-])(O)O)[C@@H](O)[C@H]3O)c2n1 [β,γ-methyleneguanosine 5′-triphosphate] gave a Ki [2] of 150 µM and a Ki [1] of 696 µM.
